Results on three compounds are retold here after patent EP2258370A1, “Treatment of malignant diseases” (Medizinische Universität Wien, priority 2009, dated 2010).

The subject of test [1] is MCF-7 cells. Put plainly: MCF-7 human breast cancer xenograft in athymic nude mice. It counts as in vivo. To be noted: intraperitoneal osmotic minipump from day 24, day 38, control 210 ± 31 mg. As to the method: On the indicated days, tumour sizes were determined with a caliper and tumour volumes calculated according to the following formula: tumour volume = [(length x width^2) x […]].
All mice were sacrificed on day 38 and tumour weights were then determined.
In general terms: A xenograft is tissue or cells of one species grown in another, often human tumour cells in immunodeficient mice.

Test [2] has as its system SW620 cells. The experiment in a line: SW620 human colon cancer xenograft in athymic nude mice. To be noted: 100µg/day for 2 weeks, intraperitoneal osmotic minipump from day 8, day 22; for mean tumour weight: control 793; for Mean tumour weight (±SD): control 793 ± 328 mg.
Description: 8 x 10^6 SW620 cells/100µl PBS were injected subcutaneously into the left flank. […] Control mice received osmotic pumps filled with Ringer's solution. All mice were sacrificed on day 22 and tumour weights were then determined.
Test [3] relates to MCF7 (mammary carcinoma). Put plainly: Cell proliferation assay (WST-1). It counts as cell-based. The conditions noted are these: 25 and 50 µM, 24 h, 48 h and 72 h, WST-1, Figs. 2a-f. The procedure: (§1) Rac-1 inhibitor compounds were tested in cell proliferation assays performed with following cancer cell lines: MCF7 (mammary carcinoma), SW620 (colon carcinoma), CRL 2505 (prostate carcinoma). The level of proliferation was measured at 24 hours (h), 48 h and 72 h after in vitro induction of compounds. Two different concentrations of compounds were tested for each cell line (25 and 50 µM, see Figs. 2a-f; the asteriks indicates significant change versus control group (no compound induction) at all incubation points (p<0.02)).
(§2) The proliferation assay was performed with Cell Proliferation Reagent WST-1 (Roche Cat. No. 1644 807). The cells were cultured 2 x 10^4 cells/well in microplates (96 wells, flat bottom). The Cell Proliferation Reagent WST-1 (10 µl/well) was added to each experimental group (Figs. 2a-f). After 4 hours of incubation (37°C) the absorbance was measured by Microplate (ELISA) reader at 450 nm optical density (OD). The reference wavelength was 620 nm.
(§3) All experimental compounds (compounds 1, 2, 3-10, 18, 53) were solved in 1% DMSO solution. Therefore, additional experimental group (1% DMSO) was used to examine proliferation activity of used cell lines in presence of 1% DMSO.
(§4) All measurements were corrected to the blank absorbance (medium with 10 µl Cell Proliferation Reagent WST-1, no cells).
(Tetrazolium assays rely on reduction of a dye to a coloured formazan, in cell work by metabolically active cells.)

For test [4], the system named is SW620 (colon carcinoma). The experiment in a line: Cell proliferation assay (WST-1). It counts as cell-based. To be noted: 25 and 50 µM, 24 h, 48 h and 72 h, WST-1, Figs. 2a-f. As to the method: as §1, §2, §3, §4
Test [5] deals with CRL 2505 (prostate carcinoma). The experiment in a line: Cell proliferation assay (WST-1). It counts as cell-based. The conditions noted are these: 25 and 50 µM, 24 h, 48 h and 72 h, WST-1, Figs. 2a-f. As to the method:
as §1, §2, §3, §4

Test [6] deals with PC-3. To be noted: Rac-hyperactive prostate cancer cells; cited from earlier work.

For the compound `CCN(CC)CCCC(C)Nc1nc(C)cc(NCCc2c[nH]c3ccc(O)cc23)n1` (racemic) [Compound 2, 3-{2-[2-(4-Diethylamino-1-methyl-butylamino)-6-methyl-pyrimidin-4-ylamino]-ethyl}-1H-indol-5-ol], the mean tumour weight was 185 ± 54 mg in test [1] (25µg per day), 152 ± 70 mg in test [1] (50µg per day), 118 ± 60 mg in test [1] (100µg per day) and 612 mg in test [2]. The “Mean tumour weight (% of control (co))” value in test [2] is on record as 77 % of control (co). The “Mean tumour weight (±SD)” value in test [2] came to 612 mg. Moreover, the “inhibiting proliferation of the tumour cells” value (“inhibiting proliferation” below) in test [3], in test [4] and in test [5] was “effective in inhibiting proliferation” throughout.

Turning to `CCN(CC)CCCC(C)Nc1nc(C)cc(NCCc2c[nH]c3ccccc23)n1` (stereo not shown) [Compound 1, N2-(4-Diethylamino-1-methyl-butyl)-N4-[2-(1H-indol-3-yl)-ethyl]-6-methyl-pyrimidine-2,4-diamine], in test [2], the “Mean tumour weight (% of control (co))” value was 74 % of control (co), the “mean tumour weight” value was 583 mg and the “Mean tumour weight (±SD)” value is 583 ± 151 mg. Besides, in test [3], the “inhibiting proliferation” value is given as “effective in inhibiting proliferation”. Moreover, in test [4], the “inhibiting proliferation” value is on record as “effective in inhibiting proliferation”. In addition, the “inhibiting proliferation” value in test [5] was “effective in inhibiting proliferation”.

`CCN(CC)CCCC(C)Nc1nc(C)cc(Nc2ccc3nc(C)cc(N)c3c2)n1` (racemic) [NSC23766, N6-(2-((4-(diethylamino)-1-methylbutyl)amino)-6-methyl-4-pyrimidinyl)-2-methyl-4,6-quinolinediamine, reference compound]: the “proliferation, anchorage independent growth, and invasion” value in test [6] is “able to inhibit proliferation, anchorage independent growth, and invasion”. In addition, in test [2], the “Mean tumour weight (% of control (co))” value is given as 107 % of control (co), the “mean tumour weight” value was 846 mg and the “Mean tumour weight (±SD)” value is recorded as 846 ± 256 mg.
